Laboratory results: patent publication US20120101099A1, “HISTONE DEACETYLASE INHIBITORS” (ANTHEM BIOSCIENCES PRIVATE LIMITED, priority 2009, published 2012)
Like-named read-outs stand apart in the source and are kept apart here.

Experiments:
[1] = tested on: A549; assay: Cell proliferation assay (MTT); assay type: cell-based; details: Homo sapiens
Experimental: (§1) Cells were seeded in a 96-well cell culture plates at a concentration of 10,000 cells per well and incubated at 37° C. in CO2 incubator.
(§2) Twenty-four hours later cells were treated with different concentrations (100, 10, 1, 0.1, and 0.01 μM) of compound dissolved in DMSO and incubated for 48 hours. For To measurement, 24 hours after seeding the cells, 20 μL of 3-(4.5-dimethyl-2- thiazolyl)-2,5-diphenyl-2H-tetrazolium (MTT) solution per well was added to the T0 plate and incubated for 3 hours at 37° C. in a CO2 incubator.
(§3) The plate containing cells and test compounds was treated similarly after 48 hours of incubation. After 3 hours of MTT addition, well contents were aspirated carefully followed by addition of 100 μL DMSO per well. Plates were agitated to ensure dissolution of the formazan crystals in DMSO and absorbance was read at 570 nm (A570). […] From the percentage growths a dose response curve was generated and GI50 values were interpolated from the growth curves.

[2] = tested on: HT-29; assay: Cell proliferation assay (MTT); assay type: cell-based; details: Homo sapiens
Experimental: as §1, §2, §3

[3] = tested on: PC-3; assay: Cell proliferation assay (MTT); assay type: cell-based; details: Homo sapiens
Experimental: as §1, §2, §3

[4] = tested on: human HDAC (Hela cells nuclear extract); assay: HDAC activity screening, Hela nuclear extract, Boc-Lys(Ac)-AMC substrate; assay type: biochemical; details: Hela nuclear extract; for HDAC % Inhibition (1 μM): 1 μM compound; for HDAC % Inhibition (10 μM): 10 μM compound; for IC50: read-out: IC50 (50% HDAC inhibitory concentration), Table 2
Experimental: To study the human HDAC inhibition the in-house 96 well plate assay have been established using fluorescent substrate (Boc-Lys (Ac)-AMC Substrate). Hela cells nuclear extract have been used as enzyme source.
Assay was performed in 96-well black microplate and total volume of the assay was 100 μL. Hela nuclear extract was diluted HDAC assay buffer (final concentration of 3.0 μg/mL). Enzyme mixture was made of 10 μL of diluted enzyme and 30 μL of HDAC buffer. 40 μl of enzyme mixture followed by 10 μL of test compound (final concentration from 0.01 to 10 μM) or vehicle (control) was added to each well. The plate was pre-incubated at 37° C. for 10 minutes. The HDAC reaction was started by adding 50 μl of HDAC substrate Boc-Lys (Ac)-AMC (Anaspec, Inc Fremont, Calif., USA). The plate was incubated at 37° C. for 45 minutes. The reaction was stopped by adding 50 μL of Trypsin stop solution and plate further incubated at 37° C. for 15 minutes. Measuring the fluorescence at excitation wavelength of 360 nm and emission wavelength of 460 nm monitored the release of AMC. Buffer alone and substrate alone served as blank.

[5] = Metabolic stability in mouse liver microsomes; assay type: in vitro ADME; details: 100 μM, 37° C.
Experimental: The objective of the study is to determine the metabolic stability of the compounds in mouse liver microsomes. Brief procedure: metabolic stability of test compounds were carried out using mouse liver microsomes. The final composition of the assay includes test compound 100 μM (dissolved in DMSO), mouse microsomal protein 0.5 mg/mL and cofactors (G-6-P 5.0 mM, G-6-PDH 0.06 U, MgCl2 2.0 mM, NADP+1.0 mM, UDPGA 0.5 mM, PAPS 0.6 mM and GSH 1 mM). The test compounds were incubated at with mouse liver microsomes with cofactors. After 1 h incubation at 37° C., the reaction was stopped by addition of stop solution (ice cold acetonitrile). The samples were centrifuged and supernatants were analysed using LC/MS/MS. The Percent of parent test compounds remaining after 1 h of incubation time was calculated with respect to the peak areas of at time 0.

[6] = tested on: ACHN; assay: Anti-proliferative activity (GI50); assay type: cell-based; details: Homo sapiens, read-out: Anti-proliferative activity (GI50) ACHN
Experimental: as §1, §2, §3

[7] = tested on: Ca Ski; assay: Anti-proliferative activity (GI50); assay type: cell-based; details: Homo sapiens, read-out: Anti-proliferative activity (GI50) Ca Ski
Experimental: as §1, §2, §3

[8] = tested on: DU-145; assay: Anti-proliferative activity (GI50); assay type: cell-based; details: Homo sapiens
Experimental: as §1, §2, §3

[9] = tested on: HCT-116; assay: Anti-proliferative activity (GI50); assay type: cell-based; details: Homo sapiens
Experimental: as §1, §2, §3

[10] = tested on: K562; assay: Anti-proliferative activity (GI50); assay type: cell-based; details: Homo sapiens
Experimental: as §1, §2, §3

[11] = tested on: KHOS; assay: Anti-proliferative activity (GI50); assay type: cell-based; details: read-out: Anti-proliferative activity (GI50) KHOS
Experimental: as §1, §2, §3

[12] = tested on: MCF-7; assay: Anti-proliferative activity (GI50); assay type: cell-based; details: Homo sapiens
Experimental: as §1, §2, §3

[13] = tested on: U-87-MG; assay: Anti-proliferative activity (GI50); assay type: cell-based; details: Homo sapiens, read-out: Anti-proliferative activity (GI50) U-87-MG
Experimental: as §1, §2, §3

[14] = tested on: acetyl-Histone H3; assay: Histone hyperacetylation in Hela cells (Western Blot); assay type: cell-based; design: key: represented by the symbol ‘+’ which indicates the relative extent of modulation; ++: represented by the symbol ‘+’ which indicates the relative extent of modulation; +++: represented by the symbol ‘+’ which indicates the relative extent of modulation; ++++: represented by the symbol ‘+’ which indicates the relative extent of modulation; details: 24 hrs, 0.03-3.0 μM
Experimental: (§4) HeLa Cells were seeded at a density of 0.4×10^6 Cells/well into 6 well plates and incubated for 24 h The compounds were tested at 5 different concentrations (0.03, 0.1, 0.3, 1.0, 3.0 μM) with corresponding control. After 24 hrs cells were lysed and histone proteins were extracted as per established protocols and the extract was used for measuring H3 and H4 hyperacetylation by Western Blot using Anti-acetyl-Histone H3 and Anti-acetyl-Histone H4 (Millipore, USA) antibodies.

[15] = tested on: acetyl-Histone H4; assay: as above; assay type: cell-based; design: key: represented by the symbol ‘+’ which indicates the relative extent of modulation; ++: represented by the symbol ‘+’ which indicates the relative extent of modulation; +++: represented by the symbol ‘+’ which indicates the relative extent of modulation; ++++: represented by the symbol ‘+’ which indicates the relative extent of modulation; details: 24 hrs, 0.03-3.0 μM
Experimental: as §4

[16] = A549, Table 1, MTT, 48 hours, read-out: Cell growth inhibition (GI50 in μM) A549
[17] = A549, Table 9, Lung, read-out: Anti-proliferative activity (GI50) A549
[18] = HT-29, Table 9, Colon, read-out: Anti-proliferative activity (GI50) HT-29
[19] = PC-3, Table 1, MTT, 48 hours, read-out: Cell growth inhibition (GI50 in μM) PC-3
[20] = PC-3, Table 9, Prostate, read-out: Anti-proliferative activity (GI50) PC-3
[21] = DU-145, Table 9, Prostate, read-out: Anti-proliferative activity (GI50) DU-145
[22] = HCT-116, Table 9, Colon, read-out: Anti-proliferative activity (GI50) HCT-116
[23] = K562, Table 9, Leukemia, read-out: Anti-proliferative activity (GI50) K562
[24] = MCF7, Table 9, Breast, read-out: Anti-proliferative activity (GI50) MCF-7

Compound	GI50 [1, 16]	GI50 [1, 17]	GI50 [2, 18]	GI50 [3, 19]	GI50 [3, 20]	HDAC % Inhibition (1 μM) [4]	HDAC % Inhibition (10 μM) [4]	IC50 [4]	% Stable compounds after 1 hr incubation [5]	GI50 ([6]; Table 9, Renal)	GI50 ([7]; Table 9, Cervix)	GI50 [8, 21]	GI50 [9, 22]	GI50 [10, 23]	GI50 ([11]; Table 9, Bone)	GI50 [12, 24]	GI50 ([13]; Table 9, Brain)	Target modulation: H3 acetylation [14]	Target modulation: H4 acetylation [15]	other results
CN(C)Cc1ccc(-c2cn(Cc3ccc(/C=C/C(=O)NO)cc3)nn2)cc1 [Example 21]	2.2 ± 2.3 µM	2.2 ± 2.22 µM	2.1 ± 0.46 µM	11.3 ± 8.3 µM	4.8 ± 1.4 µM	98%	100%	0.008 µM	65%	0.1 ± 0.04 µM	1.1 ± 0.73 µM	0.1 ± 0.04 µM	0.2 ± 0.04 µM	0.2 ± 0.04 µM	10.3 ± 3.26 µM	5.5 ± 1.2 µM	1 ± 0.33 µM	+++	++++	–
O=C(/C=C/c1ccc(Cn2cc(-c3ccc(CN4CCCC4)cc3)nn2)cc1)NO [Example 16, N-Hydroxy-3-{4-[4-(4-pyrrolidin-1-ylmethyl-phenyl)-[1,2,3]triazol-1-ylmethyl]-phenyl}-acrylamide]	1.7 ± 1 µM	1.58 ± 1.1 µM	0.15 ± 0.13 µM	12.6 ± 7.6 µM	3.5 ± 2.7 µM	99%	100%	0.004 µM	98%	0.09 ± 0.02 µM	0.42 ± 0.15 µM	0.079 ± 0.04 µM	0.1 ± 0.11 µM	0.19 ± 0.05 µM	11.7 ± 1.1 µM	3.5 ± 2.6 µM	0.76 ± 0.66 µM	++	++++	GI50 ([2]; HT-29, Table 1, MTT, 48 hours, read-out: Cell growth inhibition (GI50 in μM) HT-29): 0.04 µM
O=C(CCCCCCC(=O)Nc1ccccc1)NO [SAHA, Suberoylanilide Hydroxamic Acid, reference compound]	–	–	–	–	–	–	–	–	67%	–	–	–	–	–	–	–	–	+++	+++	GI50 ([1]; A549, read-out: Anti-proliferative activity (GI50) A549): 5.9 ± 2.4 µM; GI50 ([2]; HT-29, read-out: Anti-proliferative activity (GI50) HT-29): 3.6 ± 2.6 µM; GI50 ([3]; PC-3, read-out: Anti-proliferative activity (GI50) PC-3): 8.3 ± 0.6 µM; GI50 [6]: 1.6 ± 0.5 µM; GI50 [7]: 6 ± 5.3 µM; GI50 ([8]; DU-145, read-out: Anti-proliferative activity (GI50) DU-145): 1.3 µM; GI50 ([9]; HCT-116, read-out: Anti-proliferative activity (GI50) HCT-116): 2.2 µM; GI50 ([10]; K562, read-out: Anti-proliferative activity (GI50) K562): 2.2 ± 0.7 µM; GI50 [11]: 29.3 ± 7.2 µM; GI50 ([12]; MCF7, read-out: Anti-proliferative activity (GI50) MCF-7): 5.5 ± 1.2 µM; GI50 [13]: 6.7 ± 1.1 µM
